Each compound was assayed against T1, Human OTUB1 wild-type (Homo sapiens, UniProt Q96FW1) (assay: Covalent modification of OTUB1 (adduct formation), mass spectrometry-based assay (OTUB1 covalent binders; selected CFTR or cGAS based bivalent compounds)). Conditions: covalent adduct formation with OTUB1 protein.
T1 construct: His tag (N); made in house; host or cells: E. coli BL21-CodonPlus (DE3)-RIPIL
Format: binding
Description: OTUB1 covalent binders were tested for their ability to form the covalent adduct with OTUB1 protein using a mass-spectrometry based assay.
Example 389. Assessment of the Covalent Modification of OTUB1 Protein by Selected OTUB1 Covalent Binders Using a Mass Spectrometry-Based Assay (FIG. 1)
OTUB1 protein (10 μM) was incubated with selecting compounds (2500 μM) at RT for 1 h. The adduct was qualified by mass spectrometry-based assays.
Example 398. Assessment of the Covalent Modification of OTUB1 Protein by Selected CFTR Based Bivalent Compounds Using Mass Spectrometry-Based Assay (FIG. 10)
OTUB1 protein (10 μM) was incubated with selecting bivalent compounds (2500 μM) at RT for 1 h. The adduct was qualified by mass spectrometry-based assays.
Human OTUB1 wild-type (NM_017670.3) and C23S mutation genes were optimized based on the codon preference of E. coli, synthesized and cloned into pET15b vector with a N-terminal His tag by Genscript, respectively. The plasmid was transferred to BL21-CodonPlus (DE3)-RIPIL Competent Cell (230280, Agilent Technologies) and the recombinant protein was induced expressed by 0.5 mM IPTG at 16° C. with shaking 200 rpm for 18 h. Induced cells were harvested by centrifugation and resuspended in cold lysis buffer (50 mM Tris-H—Cl pH 7.5, 150 mM NaCl, 25 mM imidazole pH 7.5, 0.01% IGEPAL, 5% Glycerol) in the presence of Pierce Protease Inhibitor tablets (PIA32963, Fisher Scientific) and 2 mM TCEP pH 7.5.
The cells were lysed by sonication, clarified by centrifugation, and the filtered supernatant loaded onto a 5 ml HisTrap HP affinity column (17524802, Cytiva) in AKTA system. The His-recombinant protein bound to column was washed using buffer A (50 mM Tris-HCl pH 7.5, 150 mM NaCl, 25 mM imidazole pH 7.5, 0.01% IGEPAL, 5% Glycerol) and eluted with buffer B (50 mM Tris-HCl pH 7.5, 150 mM NaCl, 250 mM imidazole pH 7.5, 0.01% IGEPAL, 5% Glycerol). The eluted fractions containing OTUB1 protein were concentrated and subjected to size exclusion chromatography using a 320 mL HiLoad 26/600 Superdex 200 pg column (28989336, Cytiva) under the buffer condition ([…] Tris-HCl pH 7.5, 150 mM NaCl, and 2 mM TCEP pH 7.5). The eluted fractions containing OTUB1 protein were concentrated, divided into aliquots and stored at −80° C. freezer for further usage.
Quality control of the OTUB1 proteins was performed by SDS-PAGE, Nanodrop and mass spectrometry.
Mass Spectrometry-Based Analysis of OTUB1-Covalent Ligand Adducts
To screen the covalent ligands, recombinant OTUB1 protein (10 μM) was respectively incubated with DMSO, EN523 or seven novel ligands (2500 μM) in reaction buffer (50 mM Tris-HCl pH 7.5, 150 mM NaCl, and 0.5 mM TCEP pH 7.5) for 1 h at room temperature.
Then, the total 500 μL reaction solution was exchanged and concentrated to 50 μL 50 mM ammonium bicarbonate with a 10 kDa MWCO centrifugal filter unit (UFC901024, Millipore) and diluted in MS buffer (30% ACN, 0.2% FA) to a final concentration of […]. Mass spectrometry detection was performed by an Agilent LC/MSD Time-Of-Flight (TOF) mass spectrometer (Agilent Technologies) equipped with an electrospray ion source. The data was analyzed by TOF Protein Confirmation Software. All experiments were performed in duplicate.

T1 sequence (Q96FW1 whole entry): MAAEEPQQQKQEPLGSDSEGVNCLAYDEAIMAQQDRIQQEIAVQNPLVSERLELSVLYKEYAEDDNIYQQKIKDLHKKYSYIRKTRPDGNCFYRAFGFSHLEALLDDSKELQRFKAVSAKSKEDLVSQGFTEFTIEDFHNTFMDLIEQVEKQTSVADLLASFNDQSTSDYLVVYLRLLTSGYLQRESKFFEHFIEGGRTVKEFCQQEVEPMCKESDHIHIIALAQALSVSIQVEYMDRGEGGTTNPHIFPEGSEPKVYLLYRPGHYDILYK

SMILES | % of OTUB1 modified [%]
Cc1ccc(C(=O)NC2CC(NC(=O)C#CC(C)(C)N(C)C)C2)s1 (stereo not shown) [XS224-149, N-(3-(4-(dimethylamino)-4-methylpent-2-ynamido)cyclobutyl)-5-methylthiophene-2-carboxamide] | 15
C=CC(=O)N1CC2CCC(C1)N2c1cccc(C)c1 [XS165-54, 1-(8-(m-tolyl)-3,8-diazabicyclo[3.2.1]octan-3-yl)prop-2-en-1-one] | 1
CN(C)C/C=C/C(=O)N1C2CC1CN(C(=O)c1csc3c1CCCC3)C2 [XS190-49, (E)-4-(dimethylamino)-1-(3-(4,5,6,7-tetrahydrobenzo[b]thiophene-3-carbonyl)-3,6-diazabicyclo[3.1.1]heptan-6-yl)but-2-en-1-one] | 70
CN(C)CC#CC(=O)N1CC(NC(=O)c2cc3c(s2)CCCC3)C1 [XS224-158, N-(1-(4-(dimethylamino)but-2-ynoyl)azetidin-3-yl)-4,5,6,7-tetrahydrobenzo[b]thiophene-2-carboxamide] | 92
Cc1ccc(C(=O)N2CCC3(CC2)CN(C(=O)/C=C/CN(C)C)C3)s1 [XS185-96, (E)-4-(dimethylamino)-1-(7-(5-methylthiophene-2-carbonyl)-2,7-diazaspiro[3.5]nonan-2-yl)but-2-en-1-one] | 10
CC(=O)N1CCc2sc(N3CC4CCC(C3=O)N4C(=O)/C=C/CN(C)C)cc2C1 (stereo not shown) [XS190-70, (E)-3-(5-acetyl-4,5,6,7-tetrahydrothieno[3,2-c]pyridin-2-yl)-8-(4-(dimethylamino)but-2-enoyl)-3,8-diazabicyclo[3.2.1]octan-2-one] | 97
CN(C)C/C=C/C(=O)N1CC(C(=O)NC2CCCC2)C1 [XS185-131, (E)-N-cyclopentyl-1-(4-(dimethylamino)but-2-enoyl)azetidine-3-carboxamide] | 18
CN(C)C/C=C/C(=O)N1CCN(c2ccc(-c3ccccc3)s2)C(=O)C1 [XS175-158, (E)-4-(4-(dimethylamino)but-2-enoyl)-1-(5-phenylthiophen-2-yl)piperazin-2-one] | 45
Cc1ccc(C(=O)Nc2ccc(NC(=O)/C=C/CN(C)C)cc2)s1 [XS209-165, (E)-N-(4-(4-(dimethylamino)but-2-enamido)phenyl)-5-methylthiophene-2-carboxamide] | 20
CCc1ccc(N2CCN(C(=O)/C=C/CN(C)C)CC2=O)s1 [XS175-63, (E)-4-(4-(dimethylamino)but-2-enoyl)-1-(5-ethylthiophen-2-yl)piperazin-2-one] | 75
CN(C)C(C)(C)C#CC(=O)N1CC(NC(=O)c2cc3ccccc3s2)C1 [XS224-156, N-(1-(4-(dimethylamino)-4-methylpent-2-ynoyl)azetidin-3-yl)benzo[b]thiophene-2-carboxamide] | 85
CC(=O)N1CCN(c2ccc(C(=O)N3CC4CC(C3)N4C(=O)/C=C/CN(C)C)s2)CC1 [XS209-184, (E)-1-(3-(5-(4-acetylpiperazin-1-yl)thiophene-2-carbonyl)-3,6-diazabicyclo[3.1.1]heptan-6-yl)-4-(dimethylamino)but-2-en-1-one] | 80
Cc1ccc(NC(=O)C2CN(C(=O)CCl)C2)s1 [XS175-126, 1-(2-chloroacetyl)-N-(5-methylthiophen-2-yl)azetidine-3-carboxamide] | 100
CN(C)C/C=C/C(=O)N1Cc2ccccc2C1 [XS197-186, (E)-4-(dimethylamino)-1-(isoindolin-2-yl)but-2-en-1-one] | 15
Cc1ccc(C(=O)NC2CC3CCC(C2)N3C(=O)/C=C/CN(C)C)s1 (stereo not shown) [XS209-139, (E)-N-(8-(4-(dimethylamino)but-2-enoyl)-8-azabicyclo[3.2.1]octan-3-yl)-5-methylthiophene-2-carboxamide] | 2
CC(C)c1ccc(NC(=O)C2CCN(C(=O)/C=C/CN(C)C)CC2)s1 [XS175-178, (E)-1-(4-(dimethylamino)but-2-enoyl)-N-(5-isopropylthiophen-2-yl)piperidine-4-carboxamide] | 3

From patent US20260315604A1, “OTUB1 Small-Molecule Binders and OTUB1-recruiting Deubiquitinase-targeting Chimeras (DUBTACs)” (ICAHN SCHOOL OF MEDICINE AT MOUNT SINAI, priority 2023, published 2026)
